For the assay, the target named is SARS-CoV-2 M^PRO (Severe acute respiratory syndrome coronavirus 2, UniProt P0DTD1). Description: biochemical. The assay is classed as biochemical. The conditions noted are these: In vitro potency data; 30 min pre-incubation, 25 nM M^pro, 25 µM substrate; read-out: IC50.
As to `CC(C)(C)c1ccc(N(C(=O)CCl)C(C(=O)NC2CCCCC2)c2cncc(C#N)c2)cc1` (stereo not drawn) [INSCoV-539, N-(4-(Tert-Butyl)Phenyl)-2-Chloro-N-(1-(5-Cyanopyridin-3-yl)-2-(Cyclohexylamino)-2-Oxoethyl)Acetamide], the 50% inhibitory concentration (IC50) came out at 800 nM. As for `CC(C)(C)c1ccc(N(C(=O)CCl)C(C(=O)NC2CCCCC2)c2c[nH]c3ncccc23)cc1` (stereo not drawn) [INSCoV-549], the IC50 is 2490 nM.

As for `O=C(NC1CCCCC1)C(c1cccnc1)N(CCc1cccc(F)c1)C(=O)CCl` (stereo not drawn) [INSCoV-558, 2-Chloro-N-(2-(Cyclohexylamino)-2-Oxo-1-(Pyridin-3-yl)Ethyl)-N-(3-Fluorophenethyl)Acetamide], the half-inhibitory concentration (IC50) was determined as 330 nM. Turning to `O=C(NC1CCS(=O)(=O)CC1)C(c1cncnc1)N(CCc1cccc(F)c1)C(=O)CCl` (stereo not drawn) [INSCoV-558A, 2-Chloro-N-(2-((1,1-Dioxidotetrahydro-2H-Thiopyran-4-yl)Amino)-2-Oxo-1-(Pyrimidin-5-yl)Ethyl)-N-(3-Fluorophenethyl)Acetamide], the half-inhibitory concentration (IC50) worked out at 470 nM. Regarding `O=C(NC1CCCCC1)C(c1cccnc1)N(CCc1ccc(F)cc1)C(=O)CCl` (stereo not drawn) [INSCoV-559, 2-Chloro-N-(2-(Cyclohexylamino)-2-Oxo-1-(Pyridin-3-yl)Ethyl)-N-(4-Fluorophenethyl)Acetamide], the IC50 was determined as 1080 nM. Turning to `COc1ccccc1CCN(C(=O)CCl)C(C(=O)NC1CCCCC1)c1cccnc1` (stereo not drawn) [INSCoV-560A, 2-Chloro-N-(2-(Cyclohexylamino)-2-Oxo-1-(Pyridin-3-yl)Ethyl)-N-(2-Methoxyphenethyl)Acetamide], the IC50 is 4340 nM. For `C#CC(=O)N(c1ccc(C(C)(C)C)cc1)C(C(=O)NC1CCCCC1)c1cccnc1` (stereo not drawn) [INSCoV-571] the value was 6280 nM; for `O=C(NC1CCCCC1)C(c1cccnc1)N(Cc1cccc(C(F)(F)F)c1)C(=O)CCl` (stereo not drawn) [INSCoV-574, 2-Chloro-N-(2-(Cyclohexylamino)-2-Oxo-1-(Pyridin-3-yl)Ethyl)-N-(3-(Trifluoromethyl)Benzyl)Acetamide], 1270 nM; for `O=C(NC1CCCCC1)C(c1cccnc1)N(Cc1ccccc1C(F)(F)F)C(=O)CCl` (stereo not drawn) [INSCoV-574A, 2-Chloro-N-(2-(Cyclohexylamino)-2-Oxo-1-(Pyridin-3-yl)Ethyl)-N-(2-(Trifluoromethyl)Benzyl)Acetamide], 4970 nM. On to `O=C(NC1CCCCC1)C(c1cccnc1)N(C(=O)CCl)c1ccc2ccoc2c1` (stereo not drawn) [INSCoV-576, 2-[Benzofuran-6-yl-(2-chloroacetyl)amino]-N-cyclohexyl-2-(3-pyridyl)acetamide], for which the concentration for half-maximal inhibition (IC50) was 4670 nM. `O=C(NC1CCOCC1)C(c1cccnc1)N(C(=O)CCl)c1ccc(-c2cnco2)cc1` (stereo not drawn) [INSCoV-600A(1), 2-Chloro-N-(4-(Oxazol-5-yl)Phenyl)-N-(2-Oxo-1-(Pyridin-3-yl)-2-((Tetrahydro-2H-Pyran-4-yl)Amino)Ethyl)Acetamide]: the IC50 stood at 840 nM. For `O=C(NC1CCOCC1)C(c1cncnc1)N(C(=O)CCl)c1ccc(-c2cnco2)cc1` (stereo not drawn) [INSCoV-600A(2), 2-Chloro-N-(4-(Oxazol-5-yl)Phenyl)-N-(2-Oxo-1-(Pyrimidin-5-yl)-2-((Tetrahydro-2H-Pyran-4-yl)Amino)Ethyl)Acetamide] the value was 430 nM. For `O=C(NC1CCOCC1)C(c1cnccn1)N(C(=O)CCl)c1ccc(-c2cnco2)cc1` (stereo not drawn) [INSCoV-600A(3), 2-Chloro-N-(4-(Oxazol-5-yl)Phenyl)-N-(2-oxo-1-(Pyrazin-2-yl)-2-((Tetrahydro-2H-Pyran-4-yl)Amino)Ethyl)Acetamide] the value was 410 nM; for `O=C(NC1CCOCC1)C(c1ccnnc1)N(C(=O)CCl)c1ccc(-c2cnco2)cc1` (stereo not drawn) [INSCoV-600A], 540 nM. For `O=C(N[C@H]1CCC(F)(F)C1)C(c1cncnc1)N(C(=O)CCl)c1ccc(-c2cnco2)cc1` (stereo partly drawn) [INSCoV-600B(2)], the IC50 came out at 190 nM. Take `O=C(NC1CCC(F)(F)C1)C(c1cncnc1)N(C(=O)CCl)c1ccc(-c2cnco2)cc1` (stereo not drawn) [INSCoV-600B, 2-(N-(2-chloroacetyl)-4-oxazol-5-yl-anilino)-N-(3,3-difluorocyclopentyl)-2-pyrimidin-5-yl-acetamide]: the IC50 is 290 nM. On to `O=C(N[C@H]1CCOC1)C(c1cncnc1)N(C(=O)CCl)c1ccc(-c2cnco2)cc1` (stereo partly drawn) [INSCoV-600C(1)], for which the IC50 amounted to 270 nM. Take `O=C(N[C@H]1CCOC1)[C@@H](c1cncnc1)N(C(=O)CCl)c1ccc(-c2cnco2)cc1` [INSCoV-600C(1A)]: the IC50 turned out to be 340 nM. On to `O=C(N[C@H]1CCOC1)[C@H](c1cncnc1)N(C(=O)CCl)c1ccc(-c2cnco2)cc1` [INSCoV-600C(1B)], for which the IC50 was found to be 310 nM. Consider `O=C(N[C@@H]1CCOC1)C(c1cncnc1)N(C(=O)CCl)c1ccc(-c2cnco2)cc1` (stereo partly drawn) [INSCoV-600C(2)], for which the half-inhibitory concentration (IC50) worked out at 200 nM. Consider `O=C(N[C@@H]1CCOC1)[C@H](c1cncnc1)N(C(=O)CCl)c1ccc(-c2cnco2)cc1` [INSCoV-600C(2A)], for which the IC50 was 450 nM. For `O=C(N[C@@H]1CCOC1)[C@@H](c1cncnc1)N(C(=O)CCl)c1ccc(-c2cnco2)cc1` [INSCoV-600C(2B)] the value was 160 nM; for `O=C(NC1CCOC1)C(c1cncnc1)N(C(=O)CCl)c1ccc(-c2cnco2)cc1` (stereo not drawn) [INSCoV-600C], 220 nM; for `O=C(NC1CC(F)(F)C1)C(c1cncnc1)N(C(=O)CCl)c1ccc(-c2cnco2)cc1` (stereo not drawn) [INSCoV-600D], 520 nM. As for `CC1(NC(=O)C(c2cncnc2)N(C(=O)CCl)c2ccc(-c3cnco3)cc2)COC1` (stereo not drawn) [INSCoV-600E, 2-(N-(2-chloroacetyl)-4-oxazol-5-yl-anilino)-N-(3-methyloxetan-3-yl)-2-pyrimidin-5-yl-acetamide], the IC50 turned out to be 570 nM.

`O=C(NC1CC2(C1)CC(F)(F)C2)C(c1cncnc1)N(C(=O)CCl)c1ccc(-c2cnco2)cc1` (stereo not drawn) [INSCoV-600F]: the IC50 came to 530 nM. `O=C(NC1CC2(COC2)C1)C(c1cncnc1)N(C(=O)CCl)c1ccc(-c2cnco2)cc1` (stereo not drawn) [INSCoV-600G]: the IC50 worked out at 990 nM. In the case of `O=C(NC1CC2(C1)CS(=O)(=O)C2)C(c1cncnc1)N(C(=O)CCl)c1ccc(-c2cnco2)cc1` (stereo not drawn) [INSCoV-600H], the IC50 worked out at 660 nM. Turning to `O=C(NC1CCC(F)(F)CC1)C(c1cncnc1)N(C(=O)CCl)c1ccc(-c2ccno2)cc1` (stereo not drawn) [INSCoV-600J, 2-Chloro-N-(2-((4,4-difluorocyclohexyl)amino)-2-oxo-1-(pyrimidin-5-yl)ethyl)-N-(4-(isoxazol-5-yl)phenyl)acetamide], the IC50 was 110 nM. `O=C(NC1CCC(F)(F)CC1)C(c1cncnc1)N(C(=O)CCl)c1ccc(-c2ccncn2)cc1` (stereo not drawn) [INSCoV-600L, 2-(N-(2-chloroacetyl)-4-pyrimidin-4-yl-anilino)-N-(4,4-difluorocyclohexyl)-2-pyrimidin-5-yl-acetamide]: the IC50 is 450 nM.

Take `CN1CCC(NC(=O)C(c2cncnc2)N(C(=O)CCl)c2ccc(-c3cnco3)cc2)CC1` (stereo not drawn) [INSCoV-600M, 2-(N-(2-chloroacetyl)-4-oxazol-5-yl-anilino)-N-(1-methyl-4-piperidyl)-2-pyrimidin-5-yl-acetamide]: the 50% inhibitory concentration (IC50) came out at 500 nM.

With `Cc1cc(F)cc(F)c1NC(=O)C(c1cncnc1)N(C(=O)CCl)c1ccc(-c2cnco2)cc1` (stereo not drawn) [INSCoV-600N], the IC50 turned out to be 1060 nM. For `O=C(NC1CCC(F)(F)CC1)[C@H](c1cncnc1)N(CCc1cccc(F)c1)C(=O)C1CO1` (stereo partly drawn) [INSCoV-600Q(1)], the IC50 was 22600 nM.

Broadly, the IC50 is the concentration that gives 50% inhibition.
